Reference: patent US20260272908A1 (VANDERBILT UNIVERSITY, priority 2023, published 2026)

Experiments:
STAT3-target genes = experiment: Quantitative real time-PCR for STAT3 target genes in Meta4 organoids; type: cell-based, mouse; settings: pyrvinium 100 nM
Protocol: (§1) FIG. 3C-3D show the Western blot analysis for p-STAT3 and p-ERK in Meta3 and Meta4 organoids (FIG. 3C) and ratios of p-STAT3/total STAT3 and p-ERK/total ERK (FIG. 3D). […] FIG. 3F-3G show phase-contrast images of Meta4 organoids treated with DMSO, Pyr (100 nM), STAT3-IN-1 (1 μM), Stattic (2 μM), and Cryptotanshinone (CPT) (5 μM) for 3 days (FIG. 3F), and quantitation of organoid diameters before and after treatment (FIG. 3G). FIG. 3H-3I show phase-contrast images of Meta4 organoids treated with DMSO, trametinib (Tra), STAT3-IN-1, combination of Tra and STAT3-IN-1, and Pyr, for 3 days (FIG. 3H), and quantitation of organoid diameters before and after treatment (FIG. 3I). FIG. 3J-3K show western blot for p-STAT3 and p-ERK after treatment of Tra, Pyr, and SSTC3 (FIG. 3J) and ratios of p-STAT3/t-STAT3 and p-ERK/t-ERK (FIG. 3K). […] Relative quantification of each gene expression level was normalized to GAPDH gene expression. Shading scale represents the mRNA expression values. FIG. 3M show representative mRNA of Pim-1 and Cyclin-B1 after treatment. Mean±standard deviation. […] Scale bar=500 μM.
Two-tailed Mann-Whitney test.

p-STAT3^Y705 = experiment: Western blot for phospho-STAT3 in hPCO lines; type: cell-based, human
From the text: FIG. 7C-7D show Western blot analysis for p-STAT3 and p-ERK in three Pyr-resistant hPCO lines after Pyr treatment (FIG. 7C) and ratios of p-STAT3/t-STAT3 and p-ERK/t-ERK (FIG. 7D). FIG. 7E-7F show a Western blot for basal p-STAT3 and p-ERK levels in Pyr-sensitive and Pyr-resistant hPCO lines (FIG. 7E), and ratios of p-STAT3/t-STAT3 and p-ERK/t-ERK (FIG. 7F). FIG. 7G-7H show a Western blot for p-STAT3 and p-ERK in hPCO-3 after treatment of trametinib (Tra), Pyr, and their combinations (FIG. 7G), and ratios of p-STAT3/t-STAT3 and p-ERK/t-ERK (FIG. 7H). […] FIG. 7K-7L show phase-contrast images of Pyr-sensitive hPCO-2 treated with DMSO, Pyr, STAT3-IN-1, Sttatic, and Cryptotanshinone (CPT) for 6 days (FIG. 7K) and quantitation of organoid diameters before and after treatment (FIG. 7L). Mean±standard deviation. […]
(§2) Total proteins were extracted from organoids using radioimmunoprecipitation assay buffer (10 mmol/L Tris-HC, pH 7.2, 150 mmol/L NaCl, 5 mmol/L EDTA, 0.1% sodium dodecyl sulfate, 1.0% Triton X-100, 1% deoxycholate) with protease inhibitors. The protein concentration was measured The Bio-Rad Protein Assay (Bio-Rad Laboratories, Hercules, CA). […] After washes with TBS-T, chemiluminescence was detected with an Amersham Imager 680 instrument (GE Healthcare) after 1 mL of the SuperSignal West Femto Maximum Sensitivity Substrate (ThermoFisher) was applied to the membranes.

Wnt-target genes = experiment: Real-time PCR for Wnt-target genes in Meta4 organoids; type: cell-based, mouse; settings: pyrvinium 100 nM
Protocol: Mean±SD. One-way ANOVA with Tukey's multiple comparisons.
Total RNAs were extracted from Meta3 or Meta4 organoids using the Trizol (Invitrogen) reagent. cDNAs were synthesized using iScript gDNA clear cDNA synthesis kit (Bio-Rad) and RT-PCR was performed using SsoAdvanced™ Universal SYBR Green supermix (Bio-Rad) and a CFX96 Real-Time PCR Detection System (Bio-Rad). GAPDH, a house keeping gene, was used to normalize gene expression levels. All reactions were performed in triplicate and relative gene expression levels were obtained by the comparative ΔΔCt method using CFX Maestro software (Bio-Rad).

Meta4 organoids = experiment: Meta4 dysplastic organoid growth and cell death (organoid diameter, phase-contrast, H&E, live/dead staining); type: cell-based, mouse; settings: pyrvinium 100 nM, SSTC3 0.2-1 μM, STAT3-IN-1 1 μM, Sttatic 2 μM, 3 days
Protocol: (§3) All experiments were repeated at least three times.
(§4) All experiments were performed at least in triplicate.

Meta3 organoids = experiment: Meta3 metaplastic organoid growth and survival (organoid diameter, phase-contrast); type: cell-based, mouse; settings: trametinib 1 μM, pyrvinium 100 nM, 3 days
Protocol: as §3, §4

phospho-ERK (p-ERK) = experiment: Western blot for phospho-ERK in Meta3 and Meta4 organoids; type: cell-based, mouse
Protocol: as §1
as §2, with “CA). 5 to 10 μg of total protein was loaded onto 12.5% or 10% sodium dodecyl sulfate/polyacrylamide gel electrophoresis (PAGE) and transferred onto polyvinylidene difluoride membranes (Millipore, Billerica, MA).” for “CA).”

[1] = system: STAT pathway / STAT3^Y705 phosphorylation; experiment: Phospho-antibody array in Meta3 and Meta4 organoids; type: cell-based, mouse; settings: pyrvinium, 3 days
From the text: Shading scale represents standardized log 2(FDR) values. […] Each square represents the signal ratio of the antibody against the unphosphorylated form of the site. FIG. 2E schematically illustrates how the STAT3 and DPPs in RAS/MAPK pathway is affected by Pyr treatment in precancerous organoids.
The top 10 protein candidates were selected, including p-MYC^T358, p-PKCtheta^T538, p-C-Raf^S43 p-STAT3^Y705, p-Pyk2^T580, p-Histone H3.1^S10, p-CREB^T100, p-Pyk2^T881, p-SRF^S77, and p-ERK1/2(p44/42)^T202(FIG. 2C-2D). As the organoids were derived from Mist1-Kras mice, it is not surprising that many proteins on the list are directly related to MAPK and PKC signaling pathways, with the exception of STAT3 (FIG. 2E).

phospho-STAT3 (p-STAT3) = experiment: Western blot for phospho-STAT3 in Meta3 and Meta4 organoids; type: cell-based, mouse
Protocol: as §1
as §2, with “CA). 5 to 10 μg of total protein was loaded onto 12.5% or 10% sodium dodecyl sulfate/polyacrylamide gel electrophoresis (PAGE) and transferred onto polyvinylidene difluoride membranes (Millipore, Billerica, MA).” for “CA).”

[2] = system: human pre-cancerous organoid (hPCO) lines; experiment: Human precancerous organoid (hPCO) growth and organoid death
Protocol: To establish human pre-cancer organoids (hPCO), fresh tissues were obtained from the gastric cancer patients who underwent curative gastrectomy at SNUH (IRB No. H-1806-166-954).
Meta3, Meta4, and hPCO organoids were cultured in Matrigel (ECM, Sigma) with Mouse or Human IntestiCult medium (StemCell Technology) supplemented with 1% of penicillin/streptomycin (Gibco) in 48-well plates and medium was replaced every 3 days. The organoids were split every 5-7 days before they formed budding structures.
Mouse or human organoids were split and cultured in the Mouse or Human IntestiCult media for 1-2 days until they formed three-dimensional (3D) spherical structures, then the media was switched to media containing either DMSO vehicle or a certain concentration of each drug and cultured for 3 days. The EVOS M7000 inverted microscope were used to obtain phase contrast images of organoids. All experiments were repeated at least three times.
The number and diameters of mouse and human organoids treated with drugs were manually counted and measured at day 0 and 3 or 6 after treatment from four entire well images of each condition at 4× magnification. For counting live or dead cells, organoids were stained with Calcein AM for live cells and EthD-1 for dead cells 3 days after treatment and the number of EthD-1 positive organoids were manually counted from images taken from three wells of each condition at 4× magnification. All experiments were performed at least in triplicate. The mean values from each condition were compared by Student's paired or unpaired t-test using Graphpad Prism. *P<0.05, **P<0.01, ***P<0.001, ****P<0.0001.

Structure (SMILES): Cc1cc(/C=C/c2ccc3cc(N(C)C)ccc3[n+]2C)c(C)n1-c1ccccc1 [pyrvinium]
- expression of several STAT3-target genes, including Cyclin B1 and Pim-1 (STAT3-target genes): downregulated
- p-STAT3^Y705 levels (p-STAT3^Y705; three pyrvinium-resistant hPCO lines): no significant differences
- p-STAT3^Y705 levels (p-STAT3^Y705; three pyrvinium-sensitive hPCO lines): decreased
- Wnt-target gene expression (Wnt-target genes; 6 or 24 hours): not downregulated
- expression of Axin2, Cdca4, Rnf43, and Znrf3 (Wnt-target genes; 24 hours after treatment): increased
- organoid size / growth (Meta4 organoids): reduction in organoid size
- organoid size compared to control organoids treated with DMSO (Meta3 organoids): significant reduction in size
- phosphorylation of ERK (phospho-ERK (p-ERK); Meta3): reduced phosphorylation
- p-ERK levels (phospho-ERK (p-ERK); Meta4, 3 days): significant decrease
- most prominent effect on protein phosphorylation (phospho-array) ([1]; Meta3 and Meta4): dephosphorylation of proteins related to the STAT pathway
- STAT3^Y705 phosphorylation (phospho-array) [1]: loss
- phosphorylation of STAT3^Y705 (phospho-STAT3 (p-STAT3); Meta3): reduced phosphorylation
- phosphorylation of STAT3^Y705 (phospho-STAT3 (p-STAT3); Meta4, 3 days): significant reduction
- growth of metaplastic cells in hPCO lines ([2]; hPCO with metaplastic features): growth arrest
- number of hPCO lines classified pyrvinium-moderate ([2]; of twenty hPCO lines, 6 days): six
- number of hPCO lines classified pyrvinium-resistant ([2]; of twenty hPCO lines, 6 days): nine
- number of hPCO lines classified pyrvinium-sensitive ([2]; of twenty hPCO lines, 6 days): Five
